Patent US6673793B2, “Oxazinoquinolones useful for the treatment of viral infections” (Pharmacia & Upjohn Co., priority 2000, dated 2004)

Columns and labels:
[1] = target: T1, CMV polymerase (Human cytomegalovirus, UniProt P08546); assay: HCMV polymerase assay, scintillation proximity assay (SPA), modified version; assay type: biochemical; conditions: modified HCMV polymerase SPA assay: compounds diluted in 100% DMSO, 4.5 mM DTT in polymerase buffer, different lot of CMV polymerase; read-out: CMV polymerase IC50
T1 construct: made in house; host or cells: recombinant baculovirus-infected SF-9 cells
Experimental: The HCMV polymerase assay is performed using a scintillation proximity assay (SPA) as described in several references, such as N. D. Cook, et al., Pharmaceutical Manufacturing International, pages 49-53 (1992); K. Takeuchi, Laboratory Practice, September issue (1992); U.S. Pat. No. 4,568,649 (1986); which are incorporated by reference herein. Reactions are performed in 96-well plates. The assay is conducted in 100 μl volume with 5.4 mM HEPES (pH 7.5), 11.7 mM KCl, 4.5 mM MgCl2, 0.36 mg/ml BSA, and 90 nM ^3H-dTTP. Assays are run with and without CHAPS, (3-[(3-Cholamidopropyl)-dimethylammonio]-1-propane-sulfonate) at a final concentration of 2 mM. HCMV polymerase is diluted in enzyme dilution buffer containing 50% glycerol, 250 mM NaCl, 10 mM HEPES (pH 7.5), 100 μg/ml BSA, and 0.01% sodium azide. The HCMV polymerase, which is expressed in recombinant baculovirus-infected SF-9 cells and purified according to literature procedures, is added at 10% (or 10 μl) of the final reaction volume, i.e., 100 μl. Compounds are diluted in 50% DMSO and 10 μl are added to each well. Control wells contain an equivalent concentration of DMSO. Unless noted otherwise, reactions are initiated via the addition of 6 nM biotinylated poly(dA)-oligo(dT) template/primer to reaction mixtures containing the enzyme, substrate, and compounds of interest. Plates are incubated in a 25 C. or 37 C. H2O bath and terminated via the addition of 40 μl/reaction of 0.5 M EDTA (pH 8) per well. Reactions are terminated within the time-frame during which substrate incorporation is linear and varied depending upon the enzyme and conditions used, i.e., 30 min. for HCMV polymerase. Ten μl of streptavidin-SPA beads (20 mg/ml in PBS/10% glycerol) are added following termination of the reaction. Plates are incubated 10 min. at 37 C., then equilibrated to room temperature, and counted on a Packard Topcount. Linear regressions are performed and IC50's are calculated using computer software.
A modified version of the above HCMV polymerase assay is performed as described above, but with the following changes: Compounds are diluted in 100% DMSO until final dilution into assay buffer. In the previous assay, compounds are diluted in 50% DMSO. 4.5 mM dithiotherotol (DTT) is added to the polymerase buffer.

T1 sequence (P08546 whole entry): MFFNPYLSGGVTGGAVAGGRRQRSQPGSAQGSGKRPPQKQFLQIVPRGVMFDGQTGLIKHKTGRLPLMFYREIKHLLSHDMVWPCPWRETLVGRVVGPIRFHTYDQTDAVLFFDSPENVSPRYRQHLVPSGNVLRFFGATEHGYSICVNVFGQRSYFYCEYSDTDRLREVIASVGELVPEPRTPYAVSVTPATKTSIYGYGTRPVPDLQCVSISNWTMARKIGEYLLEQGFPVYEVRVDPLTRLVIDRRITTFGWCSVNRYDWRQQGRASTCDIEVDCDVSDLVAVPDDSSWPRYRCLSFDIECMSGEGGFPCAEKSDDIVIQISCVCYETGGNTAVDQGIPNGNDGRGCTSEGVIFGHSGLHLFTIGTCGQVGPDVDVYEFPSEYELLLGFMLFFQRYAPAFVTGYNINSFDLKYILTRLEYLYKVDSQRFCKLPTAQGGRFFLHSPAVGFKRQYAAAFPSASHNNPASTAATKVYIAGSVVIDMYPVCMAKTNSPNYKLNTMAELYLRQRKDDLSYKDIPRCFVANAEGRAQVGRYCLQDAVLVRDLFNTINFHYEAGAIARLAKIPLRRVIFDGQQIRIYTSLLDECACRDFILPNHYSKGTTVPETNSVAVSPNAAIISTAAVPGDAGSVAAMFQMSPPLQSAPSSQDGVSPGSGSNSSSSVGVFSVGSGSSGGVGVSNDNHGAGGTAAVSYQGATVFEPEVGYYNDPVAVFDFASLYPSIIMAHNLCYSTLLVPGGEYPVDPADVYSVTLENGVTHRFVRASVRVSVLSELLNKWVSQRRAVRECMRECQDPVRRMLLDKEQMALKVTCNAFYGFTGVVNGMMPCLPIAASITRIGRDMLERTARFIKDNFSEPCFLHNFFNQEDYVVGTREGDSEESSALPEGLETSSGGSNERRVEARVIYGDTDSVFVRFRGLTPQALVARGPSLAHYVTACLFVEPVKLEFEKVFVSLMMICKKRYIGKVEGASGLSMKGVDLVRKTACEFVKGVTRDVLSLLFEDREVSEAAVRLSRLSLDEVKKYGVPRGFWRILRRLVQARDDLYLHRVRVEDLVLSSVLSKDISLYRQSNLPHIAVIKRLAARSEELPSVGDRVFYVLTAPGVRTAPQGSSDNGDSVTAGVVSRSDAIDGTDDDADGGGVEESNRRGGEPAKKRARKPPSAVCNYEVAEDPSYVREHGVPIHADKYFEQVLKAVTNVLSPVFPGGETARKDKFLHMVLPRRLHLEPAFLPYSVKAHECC

Row | SMILES | melting point | IC50 [1]
1 | O=C(NCc1ccc(Cl)cc1)c1cn2c3c(cc(CN4CCOCC4)cc3c1=O)OC(c1ccc3c(c1)OCCO3)C2 (stereo not drawn) [Example 41, N-(4-Chlorobenzyl)-2-(2,3-dihydro-1,4-benzodioxin-6-yl)-9-(morpholin-4-ylmethyl)-7-oxo-2,3-dihydro-7H-[1,4]oxazino[2,3,4-ij]quinoline-6-carboxamide] | 240 to 243 °C | 440 nM
2 | O=C(NCc1ccc(Cl)cc1)c1cn2c3c(cc(CN4CCOCC4)cc3c1=O)OC(c1cccc3c1OCO3)C2 (stereo not drawn) [Example 42, 2-(1,3-Benzodioxol-4-yl)-N-(4-chlorobenzyl)-9-(morpholin-4-ylmethyl)-7-oxo-2,3-dihydro-7H-[1,4]oxazino[2,3,4-ij]quinoline-6-carboxamide] | 221 to 225 °C (dec.) | 200 nM
3 | COCOc1cc(OCOC)cc(C2Cn3cc(C(=O)NCc4ccc(Cl)cc4)c(=O)c4cc(CN5CCOCC5)cc(c43)O2)c1 (stereo not drawn) [Example 43, 2-[3,5-bis(Methoxymethoxy)phenyl]-N-(4-chlorobenzyl)-9-(morpholin-4-ylmethyl)-7-oxo-2,3-dihydro-7H-[1,4]oxazino[2,3,4-ij]quinoline-6-carboxamide] | 187 to 189 °C | 400 nM
4 | COCOc1cccc(C2Cn3cc(C(=O)NCc4ccc(Cl)cc4)c(=O)c4cc(CN5CCOCC5)cc(c43)O2)c1OCOC (stereo not drawn) [Example 44, 2-[2,3-bis(Methoxymethoxy)phenyl]-N-(4-chlorobenzyl)-9-(morpholin-4-ylmethyl)-7-oxo-2,3-dihydro-7H-[1,4]oxazino[2,3,4-ij]quinoline-6-carboxamide] | 177 to 180 °C | 1040 nM
5 | O=C(NCc1ccc(Cl)cc1)c1cn2c3c(cc(CN4CCOCC4)cc3c1=O)OC(c1ccsc1)C2 (stereo not drawn) [Example 45, N-(4-Chlorobenzyl)-9-(morpholin-4-ylmethyl)-7-oxo-2-thien-3-yl-2,3-dihydro-7H-[1,4]oxazino[2,3,4-ij]quinoline-6-carboxamide] | 241 to 245 °C (dec.) | 410 nM
6 | O=C(NCc1ccc(Cl)cc1)c1cn2c3c(cc(CN4CCOCC4)cc3c1=O)OC1(CCOCC1)C2 [Example 46, N-[(4-Chlorophenyl)methyl]-2,3,5,6-tetrahydro-9′-(4-morpholinylmethyl)-7′-oxospiro[4H-pyran-4,2′(3′H)-[7H]pyrido[1,2,3-de][1,4]benzoxazine]-6′-carboxamide] | 251 to 254 °C | 530 nM
7 | CC(C)(C)OC(=O)N1CCC2(CC1)Cn1cc(C(=O)NCc3ccc(Cl)cc3)c(=O)c3cc(CN4CCOCC4)cc(c31)O2 [Example 47, 1,1-Dimethylethyl 6-[[[(4-chlorophenyl)methyl]amino]carbonyl]-9′-(4-morpholinylmethyl)-7′-oxospiro[piperidine-4,2′(3′H)-[7H]pyrido[1,2,3-de][1,4]benzoxazine]-1-carboxylate] | 213 °C (dec.) | 830 nM
8 | O=C(NCc1ccc(Cl)cc1)c1cn2c3c(cc(CN4CCOCC4)cc3c1=O)OC1(CCNCC1)C2 [Example 48, N-[(4-Chlorophenyl)methyl]-9′-(4-morpholinylmethyl)-7′-oxospiro[piperidine-4,2′(3′H)-[7H]pyrido[1,2,3-de][1,4]benzoxazine]-6′-carboxamide] | 246 to 250 °C (dec.) | 2150 nM
9 | CN1CCC2(CC1)Cn1cc(C(=O)NCc3ccc(Cl)cc3)c(=O)c3cc(CN4CCOCC4)cc(c31)O2 [Example 49, N-[(4-Chlorophenyl)methyl]-1-methyl-9′-(4-morpholinylmethyl)-7′-oxospiro[piperidine-4,2′(3′H)-[7H]pyrido[1,2,3-de][1,4]benzoxazine]-6′-carboxamide] | 234 to 237 °C (dec.) | 2330 nM
10 | O=C(NCc1ccc(Cl)cc1)c1cn2c3c(cc(CN4CCOCC4)cc3c1=O)OC1(CCC3(CC1)OCCO3)C2 [Example 50] | > 260 °C | 1170 nM
11 | COCOCC1(COCOC)Cn2cc(C(=O)NCc3ccc(Cl)cc3)c(=O)c3cc(CN4CCOCC4)cc(c32)O1 [Example 51, N-(4-Chlorobenzyl)-2,2-bis[(methoxymethoxy)methyl]-9-(morpholin-4-ylmethyl)-7-oxo-2,3-dihydro-7H-[1,4]oxazino[2,3,4-ij]quinoline-6-carboxamide] | 147 to 149 °C | 750 nM
12 | O=C(NCc1ccc(Cl)cc1)c1cn2c3c(cc(CN4CCOCC4)cc3c1=O)OC(CO)(CO)C2 [Example 52, N-(4-Chlorobenzyl)-2,2-bis(hydroxymethyl)-9-(morpholin-4-ylmethyl)-7-oxo-2,3-dihydro-7H-[1,4]oxazino[2,3,4-ij]quinoline-6-carboxamide] | 230 to 233 °C | 810 nM
13 | O=C(NCc1ccc(Cl)cc1)c1cn2c3c(cc(CN4CCOCC4)cc3c1=O)OC1(CCSCC1)C2 [Example 53, N-[(4-Chlorophenyl)methyl]-2′,3′,5′,6′-tetrahydro-9-(4-morpholinylmethyl)-7-oxospiro[7H-pyrido[1,2,3-de]-1,4-benzoxazine-2(3H),4′-[4H]thiopyran]-6-carboxamide] | 147 to 149 °C | 530 nM
14 | O=C1CCC2(CC1)Cn1cc(C(=O)NCc3ccc(Cl)cc3)c(=O)c3cc(CN4CCOCC4)cc(c31)O2 [Example 54, N-[(4-Chlorophenyl)methyl]-9′-(4-morpholinylmethyl)-4,7′-dioxospiro[cyclohexane-1,2′(3′H)-[7H]pyrido[1,2,3-de][1,4]benzoxazine]-6′-carboxamide] | 249.5 to 252 °C | 600 nM
15 | O=C(NCc1ccc(Cl)cc1)c1cn2c3c(cc(CN4CCOCC4)cc3c1=O)OC1(CCC(O)CC1)C2 (stereo not drawn) [Example 55, N-[(4-Chlorophenyl)methyl]-4-hydroxy-9′-(4-morpholinylmethyl)-7′-oxospiro[cyclohexane-1,2′(3′H)-[7H]pyrido[1,2,3-de][1,4]benzoxazine]-6′-carboxamide] | 229 to 234 °C | 410 nM
16 | Cn1ccnc1C1Cn2cc(C(=O)NCc3ccc(Cl)cc3)c(=O)c3cc(CN4CCOCC4)cc(c32)O1 (stereo not drawn) [Example 59, N-(4-Chlorobenzyl)-2-(1-methyl-1H-imidazol-2-yl)-9-(morpholin-4-ylmethyl)-7-oxo-2,3-dihydro-7H-[1,4]oxazino[2,3,4-ij]quinoline-6-carboxamide] | > 260 °C | 480 nM
17 | O=C(NCc1ccc(Cl)cc1)c1cn2c3c(cc(CN4CCOCC4)cc3c1=O)OC(c1ccco1)C2 (stereo not drawn) [Example 60, N-(4-Chlorobenzyl)-2-(2-furyl)-9-(morpholin-4-ylmethyl)-7-oxo-2,3-dihydro-7H-[1,4]oxazino[2,3,4-ij]quinoline-6-carboxamide] | 220 to 222.5 °C | 460 nM
18 | COCOCc1cccc(C2Cn3cc(C(=O)NCc4ccc(Cl)cc4)c(=O)c4cc(CN5CCOCC5)cc(c43)O2)c1 (stereo not drawn) [Example 61, N-(4-Chlorobenzyl)-2-{3-[(methoxymethoxy)methyl]phenyl}-9-(morpholin-4-ylmethyl)-7-oxo-2,3-dihydro-7H-[1,4]oxazino[2,3,4-ij]quinoline-6-carboxamide] | 186.5 to 189 °C | 540 nM
19 | O=C(NCc1ccc(Cl)cc1)c1cn2c3c(cc(CN4CCOCC4)cc3c1=O)OC(c1cccc(CO)c1)C2 (stereo not drawn) [Example 62, N-(4-Chlorobenzyl)-2-[3-(hydroxymethyl)phenyl]-9-(morpholin-4-ylmethyl)-7-oxo-2,3-dihydro-7H-[1,4]oxazino[2,3,4-ij]quinoline-6-carboxamide] | 229 to 233 °C | 380 nM
20 | O=C(NCc1ccc(Cl)cc1)c1cn2c3c(cc(CN4CCOCC4)cc3c1=O)OC(c1cccc(O)c1)C2 (stereo not drawn) [Example 63, N-(4-Chlorobenzyl)-2-(3-hydroxyphenyl)-9-(4-morpholinylmethyl)-7-oxo-2,3-dihydro-7H-[1,4]oxazino[2,3,4-ij]quinoline-6-carboxamide] | 213 °C (dec.) | 290 nM
21 | O=C(NCc1ccc(Cl)cc1)c1cn2c3c(cc(CN4CCOCC4)cc3c1=O)OC(c1ccc(O)cc1)C2 (stereo not drawn) [Example 65, N-(4-Chlorobenzyl)-2-(4-hydroxyphenyl)-9-(morpholin-4-ylmethyl)-7-oxo-2,3-dihydro-7H-[1,4]oxazino[2,3,4-ij]quinoline-6-carboxamide] | > 260 °C | 450 nM
